In patent US6165984A, “Naringin and naringenin as inhibitors of acyl CoA-cholesterol-o-acyltransferase” (Korea Institute of Science & Technology, priority 1997, dated 2000):

Experiments:
ICR mice = experiment: Acute oral toxicity of naringin or naringenin in mice; type: in vivo, mouse; settings: for toxicity or mitogenicity: tests using mice
Description: 7 to 8 week-old, specific pathogen-free ICR female mice (6 heads) each weighing about 25 to 29 g and male mice (6 heads) each weighing about 34 to 38 g were bred under a condition of temperature 22±1° C., moisture 55±5% and photoperiod 12L/12D. Fodder (Cheiljedang Co., mouse and rat fodder) and water were sterilized and fed to the mice.
Naringin or naringenin was dissolved in 0.5% Tween 80 to a concentration of 100 mg/ml, and the solution was orally administered to the mice in an amount of 0.2 ml per 20 g of mouse body weight. […] The weight changes of the mice were recorded every day to examine the effect of naringin or naringenin. Further, on the 10th day, the mice were sacrificed and the internal organs were visually examined.

[1] = Plasma total cholesterol, HDL-cholesterol and neutral lipid in rats on high-cholesterol diet (Example 4); type: in vivo, Sprague-Dawley rat; settings: 1% cholesterol diet plus 0.1% compound, six weeks; for HDL-C: control 22.2; for TG (triglyceride): control 99.2 ± 18.9; for Total-C (total plasma cholesterol): control 147.8 ± 34.8
Excerpt: (§1) 30 four-week-old Sprague-Dawley rats (Taihan laboratory animal center, Korea) each weighing about 90 to 110 g were evenly divided into three dietary groups by a randomized block design. The rats of the three groups were fed with three different high-cholesterol diets, i.e., AIN-76 laboratory animal diet (ICN Biochemicals, Cleveland, Ohio, U.S.A.) containing 1% cholesterol (Control group), and 1% cholesterol plus 0.1% naringin or naringenin, respectively.
The effect of administering naringin or naringenin to rats on the plasma cholesterol and neutral lipid content was determined as follows.
(§2) Blood samples were taken from the rats of the three dietary groups and plasma HDL fractions were separated therefrom by using HDL-cholesterol reagent (Sigma Chemical Co., Cat. No. 352-3) containing dextran-sulfate. Total cholesterol and HDL-cholesterol levels were determined by using Sigma Diagnostic Kit Cat. No. 352-100(Sigma Chemical Co., U.S.A.) (Allain et al., Clin. Chem., 20, 470-475(1974)). Neutral lipid level was determined by using Sigma Diagnostic Kit Cat. No. 339-50(Bucolo, G. and David, H., Clin. Chem., 19, 476-482(1973)). The result is shown in Table III, wherein the total plasma cholesterol levels in naringin and naringenin-fed rat groups decreased by 32% and 18%, respectively, as compared with that of the control group.

[2] = system: acyl CoA-cholesterol-o-acyltransferase (ACAT); experiment: ACAT activity in liver microsomes of naringin- or naringenin-fed rats (Example 5); type: in vivo, Sprague-Dawley rat; settings: liver microsomes of rats fed 0.1% compound in 1% cholesterol diet; for ACAT activity: control 806.2 ± 105.2; for % Inhibition on ACAT activity: vs control group
Excerpt: as §1
To determine the effects of naringin and naringenin feeding to rats on the activity of ACAT, microsomes were separated from the liver tissue to be used as an enzyme source.
First, the rats of the three groups prepared in Example 3 were sacrificed by decapitation and the livers were excised. 1 g each of the livers was homogenized in 5 ml of homogenization medium (0.1 M KH2 PO4, pH 7.4, 0.1 mM EDTA and 10 mM β-mercaptoethanol). The homogenate was centrifuged at 3,000×g for 10 min. at 4° C. and the supernatant thus obtained was centrifuged at 15,000×g for 15 min. at 4° C. to obtain a supernatant. The supernatant was put into an ultracentrifuge tube (Beckman) and centrifuged at 100,000×g for 1 hour at 4° C. to obtain microsomal pellets, which were then suspended in 3 ml of the homogenization medium and centrifuged at 100,000×g for 1 hour at 4° C. The pellets thus obtained were suspended in 1 ml of the homogenization medium. The concentration of proteins in the resulting suspension was determined by Lowry's method and then adjusted to 4 to 8 mg/ml. The resulting suspension was stored in a deep freezer (Biofreezer, Forma Scientific Inc.).
6.67 μl of 1 mg/ml cholesterol solution in acetone was mixed with 6 μl of 10% Triton WR-1339(Sigma Co.) in acetone and, then, acetone was removed from the mixture by evaporation using nitrogen gas. Distilled water was added to the resulting mixture in an amount to adjust the concentration of cholesterol to […].
To 10 μl of the resulting aqueous cholesterol solution were added 10 μl of 1 M KH2 PO4 (pH 7.4), 5 μl of 0.6 mM bovine serum albumin (BSA), 10 μl of microsome solution obtained in (Step 1) and 55 μl of distilled water (total 90 μl). The mixture was pre-incubated in a waterbath at 37° C. for 30 min.
10 μl of (1-^14 C) oleoyl-CoA solution (0.05 μCi, final concentration: 10 μM) was added to the pre-incubated mixture and the resulting mixture was incubated in a waterbath at 37° C. for 30 min. […]
200 μl of the resulting supernatant was put in a scintillation bottle and 4 ml of scintillation fluid (Lumac) was added thereto. The mixture was assayed for radioactivity with 1450 Microbeta liquid scintillation counter (Wallacoy, Finland). ACAT activity was calculated as picomoles of cholesteryl oleate synthesized per min. per mg protein (pmoles/min/mg protein).

[3] = Blood total cholesterol and triglyceride in cholesterol-fed rabbits (Example 6); type: in vivo, New Zealand White rabbit; settings: 1% cholesterol diet, 6 weeks, 1 mg/kg Lovastatin, 0.1% naringin or naringenin; for Triglyceride: control 56; for Total cholesterol: control 1143
Description: as §2, with “U.S.A.) (Allain” left out, “group. […] RC4 diet comprises 7.6% moisture, 22.8% crude protein, 2.8% crude fat, 8.8% crude ash, 14.4% crude cellulose and 43.6% soluble nitrogen-free substances. The rabbits were bred for 6 weeks while being allowed free access to the diets and water. Further, blood samples were taken from the rabbits and total cholesterol and triglyceride levels were determined in accordance with the same procedure in Example 4.” for “group.”

liver function = settings: in vivo
[4] = literature; cited from earlier work
[5] = single oral dose, 1,000 mg/kg, mice

Row | SMILES | corresponding oral administration dose for a person weighing 50 kg (ICR mice; mouse, in vivo) | survival at day 10 (ICR mice; [5]) | toxicity or mitogenicity (ICR mice) | decrease of total plasma cholesterol level compared with control group [1] | HDL-C [1] | TG (triglyceride) [1] | Total-C (total plasma cholesterol) [1] | ACAT activity [2] | % Inhibition on ACAT activity [2] | Triglyceride [3] | Total cholesterol [3] | adverse effects on the liver function (liver function) | reported activities [4] | weight loss (ICR mice; single oral dose, 1,000 mg/kg, mice, 10 day test period) | toxicity (ICR mice; single oral dose, 1,000 mg/kg, mice, 10 days) | pathological abnormality at autopsy (ICR mice; single oral dose, 1,000 mg/kg, mice, day 10)
1 | C[C@@H]1O[C@@H](O[C@H]2[C@H](Oc3cc(O)c4c(c3)O[C@H](c3ccc(O)cc3)CC4=O)O[C@H](CO)[C@@H](O)[C@@H]2O)[C@H](O)[C@H](O)[C@H]1O [naringin, Naringin] | 50-100 g/kg body weight | All the mice were alive | little toxicity or mitogenicity | 32% | 24.0 mg/dL | 86.7 ± 14.6 mg/dL | 100.8 ± 16.1 mg/dL | 643.5 ± 80.7 pmole/min/mg protein | 20.2% | 72 mg/dL | 1367 mg/dL | no adverse effects on the liver function | anti-cancer, anti-viral and cholesterol lowering activities | – | – | –
2 | O=C1C[C@@H](c2ccc(O)cc2)Oc2cc(O)cc(O)c21 [naringenin] | – | All the mice were alive | little toxicity or mitogenicity | 18% | 23.4 mg/dL | 103.4 ± 18.2 mg/dL | 120.9 ± 25.9 mg/dL | 666.3 ± 65.3 pmole/min/mg protein | 17.4% | 70 mg/dL | 1350 mg/dL | no adverse effects on the liver function | anti-cancer, anti-viral and cholesterol lowering activities | no weight loss | no toxicity | did not develop any pathological abnormality
